The text below walks through data of patent US20070071792A1, “In VIVO formed matrices including natural biodegradale polysaccharides and ophthalmic uses thereof” (priority 2005, published 2007).

The test system of one series is PC-12 cells. Briefly: Cell viability within polyalditol-acrylate redox components (Live/Dead Viability/Cytotoxicity Kit). The settings on record: 15 min. The method, then:
Cell suspensions were prepared as follows: PC-12 cells (ATCC; passage 5; 75% confluency) were harvested from a T-75 flask using Trypsin-EDTA for 2 minutes. The cells were placed in a 15 mL polyethylene conical (VWR) and centrifuged in F-12k media without serum for 4 minutes at 500 rpm. The cells were counted using a hemocytometer, centrifuged for 4 minutes at 500 rpm, and resuspended at 600,000 cells/mL in sterile PBS.
In order to determine the effect of individual components of the matrix forming compositions on cell viability, solutions A-G were independently mixed with PC-12 cells. 50 uL of cell suspension was added to 350 uL of solutions A-G (Table 7). After a 15 minute incubation, cell viability was assessed using a Live/Dead™ Viability/Cytotoxicity Kit (cat.# L3224; Molecular Probes, Eugene, Oreg.).
The effect of a formed matrix on cell viability was also tested. To form the PD-A matrix, solution #1 (200 mg PD-A, 10 uL TEMED, 20 uL 1N HCl, 470 uL PBS) was added in the amount of 200 uL to a 1.6 ml eppendorf (VWR). Solution #2 (400 mg PD-A, 10 mg Potassium persulfate, 75K PC-12 cells, 500 uL PBS) was added in the amount of 200 uL to solution #1 in the eppendorf and mixed for 10 seconds. After a 15 minute incubation, cell viability was assessed using the Live/Dead™ Viability/Cytotoxicity Kit.

In the case of `O=C(O)/C=C\C(=O)NCCCCCC(=O)O`, the melting point (as a rule, the temperature of the solid-liquid transition) is 160 to 165 °C.

For `N.N.O=S(=O)(O)OOS(=O)(=O)O` [Ammonium persulfate], the “Cell viability (%)” value with PC-12 cells (10 mg/ml in PBS) and in the series with PC-12 cells (120 mg/ml in PBS) was 90% in each case.

As for `O=S(=O)([O-])OOS(=O)(=O)[O-].[K+].[K+]` [Potassium persulfate], the “Cell viability (%)” value in the series with PC-12 cells (10 mg/ml in PBS) was 90%.

On to `O=S(=O)([O-])OOS(=O)(=O)[O-].[Na+].[Na+]` [Sodium persulfate], for which the “Cell viability (%)” value with PC-12 cells (5 mg/ml in PBS) was 90%.
